Measurements: BindingDB's records for doi:10.1021/jm980537b (Agouron Pharmaceuticals, 1999)
pEC50: −log10 of the molar value.

Experiments:
[1] = Increased percentage of formazan production in drug treated virus infected cells to equal 50% of control drug free uninfected cells on serotype 14
[2] = The EC50 was calculated as the concentration of drug that increased the percentage of formazan production in drug treated, virus infected cells to 50% of that produced by drug free uninfected cells on serotype 1A.
[3] = The EC50 was calculated as the concentration of drug that increased the percentage of formazan production in drug treated,virus infected cells to 50% of that produced by drug free uninfected cells on serotype 10.
[4] = The EC50 was calculated as the concentration of drug that increased the percentage of formazan production in drug treated, virus infected cells to 50% of that produced by drug free uninfected cells on serotype 2.
[5] = The EC50 was calculated as the concentration of drug that increased the percentage of formazan production in drug treated, virus infected cells to 50% of that produced by drug free uninfected cells on serotype 1A.; remark: listed apart in the source

Compound | pEC50 [1] | pEC50 [2] | pEC50 [3] | pEC50 [4] | pEC50 [5]
CCOC(=O)/C=C/[C@H](CCC(N)=O)NC(=O)[C@@H](CC(=O)[C@@H](NC(=O)SC1CCCC1)C(C)(C)C)Cc1ccccc1 [(E)-(S)-4-((2R,5S)-2-Benzyl-5-cyclopentylsulfanylcarbonylamino-6,6-dimethyl-4-oxo-heptanoylamino)-6-carbamoyl-hex-2-enoic acid ethyl ester] | 7.30 | 6.37 |  |  | 
CCOC(=O)/C=C/[C@H](CCC(N)=O)NC(=O)[C@@H](CC(=O)[C@@H](NC(=O)SC1CCCC1)C(C)C)Cc1ccc(F)cc1 [(E)-(S)-6-Carbamoyl-4-[(2R,5S)-5-cyclopentylsulfanylcarbonylamino-2-(4-fluoro-benzyl)-6-methyl-4-oxo-heptanoylamino]-hex-2-enoic acid ethyl ester] | 7.70 | 6.77 |  |  | 
CCOC(=O)/C=C/[C@H](CCC(N)=O)NC(=O)[C@@H](CC(=O)[C@H](CC(C)C)NC(=O)SC1CCCC1)Cc1ccc(F)cc1 [(E)-(S)-6-Carbamoyl-4-[(2R,5S)-5-cyclopentylsulfanylcarbonylamino-2-(4-fluoro-benzyl)-7-methyl-4-oxo-octanoylamino]-hex-2-enoic acid ethyl ester] | 6.55 | 6.22 | 5.80 | 6.15 | 
CCOC(=O)/C=C/[C@H](CCC(N)=O)NC(=O)[C@@H](CC(=O)[C@@H](NC(=O)SC1CCCC1)C(C)C)Cc1ccc(C)cc1 [(E)-(S)-6-Carbamoyl-4-[(2R,5S)-5-cyclopentylsulfanylcarbonylamino-6-methyl-2-(4-methyl-benzyl)-4-oxo-heptanoylamino]-hex-2-enoic acid ethyl ester] | 8.22 | 6.80 | 7.22 | 6.89 | 
CCOC(=O)/C=C/[C@H](CCC(N)=O)NC(=O)[C@@H](CC(=O)[C@@H](NC(=O)SC1CCCC1)C(C)C)Cc1ccc(C(F)(F)F)cc1 [(E)-(S)-6-Carbamoyl-4-[(2R,5S)-5-cyclopentylsulfanylcarbonylamino-6-methyl-4-oxo-2-(4-trifluoromethyl-benzyl)-heptanoylamino]-hex-2-enoic acid ethyl ester] | 7.30 |  | 6.80 |  | 
CCOC(=O)/C=C/[C@H](CCC(N)=O)NC(=O)[C@@H](CC(=O)[C@H](CC(C)C)NC(=O)SC1CCCC1)Cc1ccc(C)cc1 [(E)-(S)-6-Carbamoyl-4-[(2R,5S)-5-cyclopentylsulfanylcarbonylamino-7-methyl-2-(4-methyl-benzyl)-4-oxo-octanoylamino]-hex-2-enoic acid ethyl ester] |  |  | 5.85 | 6.00 | 6.25

Other lines, results leading:

pEC50 [1] | pEC50 [2] | pEC50 [3] | pEC50 [4] | pEC50 [5] | Compound
6.44 |  |  |  |  | CCOC(=O)/C=C/[C@H](CCC(N)=O)NC(=O)[C@@H](CC(=O)[C@H](CC(C)C)NC(=O)OCc1ccccc1)Cc1ccccc1 [(E)-(S)-4-((2R,5S)-2-Benzyl-5-benzyloxycarbonylamino-7-methyl-4-oxo-octanoylamino)-6-carbamoyl-hex-2-enoic acid ethyl ester]
6.72 |  |  |  |  | CCOC(=O)/C=C/[C@H](CCC(N)=O)NC(=O)[C@@H](CC(=O)[C@@H](NC(=O)SCc1ccccc1)C(C)C)Cc1ccccc1 [(E)-(S)-4-((2R,5S)-2-Benzyl-5-benzylsulfanylcarbonylamino-6-methyl-4-oxo-heptanoylamino)-6-carbamoyl-hex-2-enoic acid ethyl ester]
6.17 |  |  |  |  | CCOC(=O)/C=C/[C@H](CCC(N)=O)NC(=O)[C@@H](CC(=O)[C@H](CC(C)C)NC(=O)SCc1ccccc1)Cc1ccccc1 [(E)-(S)-4-((2R,5S)-2-Benzyl-5-benzylsulfanylcarbonylamino-7-methyl-4-oxo-octanoylamino)-6-carbamoyl-hex-2-enoic acid ethyl ester]
7.70 |  | 7.46 | 7.00 |  | CCOC(=O)/C=C/[C@H](CCC(N)=O)NC(=O)[C@@H](CC(=O)[C@@H](NC(=O)SC1CCCC1)C(C)C)Cc1ccccc1 [(E)-(S)-4-((2R,5S)-2-Benzyl-5-cyclopentylsulfanylcarbonylamino-6-methyl-4-oxo-heptanoylamino)-6-carbamoyl-hex-2-enoic acid ethyl ester]
6.72 |  |  |  |  | CCOC(=O)/C=C/[C@H](CCC(N)=O)NC(=O)[C@@H](CC(=O)[C@H](CC(C)C)NC(=O)SC1CCCC1)Cc1ccccc1 [(E)-(S)-4-((2R,5S)-2-Benzyl-5-cyclopentylsulfanylcarbonylamino-7-methyl-4-oxo-octanoylamino)-6-carbamoyl-hex-2-enoic acid ethyl ester]
